Laboratory results from ChEMBL document CHEMBL1138304, “New novobiocin analogues as antiproliferative agents in breast cancer cells and potential inhibitors of heat shock protein 90” (J Med Chem, 2007).
The source made the active and inactive calls. The calls are words filed in the database; no cut-off is given here.

Assays:
MCF7 [1] = assay: Cell cycle arrest in MCF7 cells assessed as accumulation at subG1 phase at 200 uM after 72 hrs by flow cytometry; format: functional, Homo sapiens
MCF7 [2] = assay: Decrease in cdk4 protein level in MCF7 cells at 200 uM after 18 hrs; format: functional, cell-based; settings: Homo sapiens
MCF7 [3] = assay: Cell cycle arrest in MCF7 cells assessed as accumulation at G0/G1 phase at 200 uM after 48 hrs by flow cytometry; format: functional, Homo sapiens
MCF7 [4] = assay: Cell cycle arrest in MCF7 cells assessed as accumulation at G0/G1 phase at 200 uM after 72 hrs by flow cytometry; format: functional, Homo sapiens
MCF7 [5] = assay: Cell cycle arrest in MCF7 cells assessed as accumulation at G2/M phase at 200 uM after 72 hrs by flow cytometry; format: functional, Homo sapiens
MCF7 [6] = assay: Cytotoxicity against MCF7 cells assessed as cell viability at 200 uM after 72 hrs by MTT assay; format: functional; settings: Homo sapiens, MCF7, 72 h; read-out: Activity
MCF7 [7] = assay: Cell cycle arrest in MCF7 cells assessed as accumulation at subG1 phase at 200 uM after 48 hrs by flow cytometry; format: functional, Homo sapiens
MCF7 [8] = assay: Cell cycle arrest in MCF7 cells assessed as accumulation at G2/M phase at 200 uM after 48 hrs by flow cytometry; format: functional, Homo sapiens
MCF7 [9] = assay: Cell cycle arrest in MCF7 cells assessed as accumulation at S phase at 200 uM after 48 hrs by flow cytometry; format: functional, Homo sapiens
MCF7 [10] = assay: Cell cycle arrest in MCF7 cells assessed as accumulation at S phase at 200 uM after 72 hrs by flow cytometry; format: functional, Homo sapiens
MCF7 [11] = assay: Decrease in HER2 expression in MCF7 cells at 200 uM after 18 hrs; format: functional, cell-based; settings: Homo sapiens
MCF7 [12] = assay: Growth inhibition of MCF7 cells after 72 hrs by MTT assay; format: functional, cell-based; settings: Homo sapiens, MCF7, 72 h
MELN [13] = assay: Inhibition of estradiol-induced ER-mediated transcription in MELN cells by measuring luciferase activity at 200 uM after 18 hrs; format: functional, cell-based; settings: Homo sapiens
MELN [14] = assay: Inhibition of basal ER-mediated transcription activity in MELN cells by measuring luciferase activity at 2 uM after 18 hrs; format: functional, cell-based; settings: Homo sapiens
MELN [15] = assay: Inhibition of estradiol-induced ER-mediated transcription in MELN cells by measuring luciferase activity at 2 uM after 18 hrs; format: functional, cell-based; settings: Homo sapiens
MCF7 [16] = assay: Decrease in Raf1 expression in MCF7 cells at 200 uM after 18 hrs; format: functional, cell-based; settings: Homo sapiens

IC50 (MCF7 [12]) [µM]	SMILES	Activity (MCF7 [1]) [%]	Activity (MCF7 [2])	Activity (MCF7 [3]) [%]	Activity (MCF7 [4]) [%]	Activity (MCF7 [5]) [%]	viability at 200 µM (MCF7 [6]) [%]	Activity (MCF7 [7]) [%]	Activity (MCF7 [8]) [%]	Activity (MCF7 [9]) [%]	Activity (MCF7 [10]) [%]	Activity (MCF7 [11])	Activity (MELN [13])	Activity (MELN [14])	Activity (MELN [15])	Activity (MCF7 [16])
–	Cc1c(O)ccc2c(O)c(NC(=O)c3ccc4c(c3)CCC(C)(C)O4)c(=O)oc12 [CYCLONOVOBIOCIC ACID]	6	Active	46.5	58.1	18.6	75	7.7	14.4	36.2	23.4	–	–	–	–	–
–	COc1ccc(C(=O)Nc2c(OC)c3ccc(OC)c(C)c3oc2=O)cc1CC=C(C)C	3.8	–	73.3	82.1	6.9	–	3.6	10.8	14.4	10.2	Active	–	–	–	–
260	CO[C@@H]1[C@@H](OC(N)=O)[C@@H](O)[C@H](Oc2ccc3c(O)c(NC(=O)c4ccc(O)c(CC=C(C)C)c4)c(=O)oc3c2C)OC1(C)C [NOVOBIOCIN]	9.8	–	59.9	58.3	19.3	–	5.9	19.3	19.7	21.3	–	Active	–	–	–
–	CC1(C)[C@@H](O)CC[C@]2(C)[C@H]3C(=O)C=C4[C@@H]5C[C@@](C)(C(=O)O)CC[C@]5(C)CC[C@@]4(C)[C@]3(C)CC[C@@H]12	–	–	–	–	–	–	–	–	–	–	–	–	Active	Active	–
–	COc1ccc2c(O)c(NC(=O)c3ccc4c(c3)CCC(C)(C)O4)c(=O)oc2c1C	2.5	–	71.9	85.4	6.5	75	3.3	10.7	16.2	8.5	–	–	–	–	–
–	COc1ccc2c(OC)c(NC(=O)c3ccc4c(c3)CCC(C)(C)O4)c(=O)oc2c1C	3.8	–	56.7	77.8	7.2	75	7.5	11.9	28.4	14.8	–	–	–	–	–
–	COc1ccc(-c2c(NC(=O)c3ccc4c(c3)CCC(C)(C)O4)c(=O)oc3c(C)c(OC)ccc23)cc1	4	–	71	81.3	7.7	–	3.7	11.5	15.3	9.5	–	–	–	–	–
–	Cc1ccc(S(=O)(=O)Oc2ccc3c(-c4ccc(Cl)cc4)c(NC(=O)c4ccc5c(c4)CCC(C)(C)O5)c(=O)oc3c2C)cc1	4.9	–	70.4	74.1	7.5	–	3.8	9.9	19.7	17.1	–	–	–	–	Active
